Test results reported in the kinase profiling compilation of Christmann-Franck et al. (2016).

Columns and labels:
Experiment in all cases: radiometric filter-binding kinase assay
PRKACA (human) = PRKACA (human) (UniProt P17612)
CSNK2A1 (human) = CSNK2A1 (human) (UniProt P68400)
CHEK1 (human) = CHEK1 (human) (UniProt O14757)
AURKA (human) = AURKA (human) (UniProt O14965)
PHKG1 (human) = PHKG1 (human) (UniProt Q16816)
[1] = system: PAK2 (human), Q13177 [T402E]
INSRR (human) = INSRR (human) (UniProt P14616)
DYRK2 (human) = DYRK2 (human) (UniProt Q92630)
FLT1 (human) = FLT1 (human) (UniProt P17948)
MAPKAPK5 (human) = MAPKAPK5 (human) (UniProt Q8IW41)
MAP2K2 (human) = MAP2K2 (human) (UniProt P36507)
CDK2 CCNA2 (human) = CDK2 CCNA2 (human) (UniProt P20248+P24941)
MAPKAPK3 (human) = MAPKAPK3 (human) (UniProt Q16644)
TAOK1 (human) = TAOK1 (human) (UniProt Q7L7X3)
ERBB4 (human) = ERBB4 (human) (UniProt Q15303)
MINK1 (human) = MINK1 (human) (UniProt Q8N4C8)
MAPK15 (human) = MAPK15 (human) (UniProt Q8TD08)
FGFR1 (human) = FGFR1 (human) (UniProt P11362)
PRKCA (human) = PRKCA (human) (UniProt P17252)
GCK (human) = GCK (human) (UniProt Q12851)
MAPK12 (human) = MAPK12 (human) (UniProt P53778)
MAPK10 (human) = MAPK10 (human) (UniProt P53779)
BRSK1 (human) = BRSK1 (human) (UniProt Q8TDC3)
EEF2K (human) = EEF2K (human) (UniProt O00418)
RPS6KA3 KD1 KD2 (human) = RPS6KA3 KD1 KD2 (human) (UniProt P51812)
[2] = system: SGK1 (human), O00141 [S422D]
AURKB (human) = AURKB (human) (UniProt Q96GD4)
MELK (human) = MELK (human) (UniProt Q14680)
PIM2 (human) = PIM2 (human) (UniProt Q9P1W9)
SRPK1 (human) = SRPK1 (human) (UniProt Q96SB4)
MST4 (human) = MST4 (human) (UniProt Q9P289)
RIPK2 (human) = RIPK2 (human) (UniProt O43353)
EPHA2 (human) = EPHA2 (human) (UniProt P29317)
BTK (human) = BTK (human) (UniProt Q06187)
MAP2K6 (human) = MAP2K6 (human) (UniProt P52564)
PIM3 (human) = PIM3 (human) (UniProt Q86V86)

Sequence of EEF2K (human) (O00418 whole entry, looked up): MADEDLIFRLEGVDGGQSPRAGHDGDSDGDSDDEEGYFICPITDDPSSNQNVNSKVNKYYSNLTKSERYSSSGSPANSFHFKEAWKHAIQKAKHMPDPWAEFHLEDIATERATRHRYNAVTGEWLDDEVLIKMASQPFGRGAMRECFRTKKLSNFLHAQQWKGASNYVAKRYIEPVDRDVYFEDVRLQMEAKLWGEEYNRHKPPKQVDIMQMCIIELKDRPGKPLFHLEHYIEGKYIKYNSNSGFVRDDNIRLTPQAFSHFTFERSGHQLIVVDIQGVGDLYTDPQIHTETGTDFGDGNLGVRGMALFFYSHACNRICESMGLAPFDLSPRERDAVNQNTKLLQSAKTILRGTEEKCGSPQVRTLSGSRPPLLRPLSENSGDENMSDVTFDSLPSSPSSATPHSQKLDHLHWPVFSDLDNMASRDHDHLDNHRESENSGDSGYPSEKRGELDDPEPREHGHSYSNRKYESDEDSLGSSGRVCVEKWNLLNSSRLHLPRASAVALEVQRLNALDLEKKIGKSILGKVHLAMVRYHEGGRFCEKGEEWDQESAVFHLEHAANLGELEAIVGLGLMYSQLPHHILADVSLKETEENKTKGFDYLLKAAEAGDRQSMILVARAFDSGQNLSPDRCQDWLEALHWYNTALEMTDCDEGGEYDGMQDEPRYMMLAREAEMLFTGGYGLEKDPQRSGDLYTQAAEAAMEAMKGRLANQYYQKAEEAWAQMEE
Sequence of ERBB4 (human) (Q15303 whole entry, looked up): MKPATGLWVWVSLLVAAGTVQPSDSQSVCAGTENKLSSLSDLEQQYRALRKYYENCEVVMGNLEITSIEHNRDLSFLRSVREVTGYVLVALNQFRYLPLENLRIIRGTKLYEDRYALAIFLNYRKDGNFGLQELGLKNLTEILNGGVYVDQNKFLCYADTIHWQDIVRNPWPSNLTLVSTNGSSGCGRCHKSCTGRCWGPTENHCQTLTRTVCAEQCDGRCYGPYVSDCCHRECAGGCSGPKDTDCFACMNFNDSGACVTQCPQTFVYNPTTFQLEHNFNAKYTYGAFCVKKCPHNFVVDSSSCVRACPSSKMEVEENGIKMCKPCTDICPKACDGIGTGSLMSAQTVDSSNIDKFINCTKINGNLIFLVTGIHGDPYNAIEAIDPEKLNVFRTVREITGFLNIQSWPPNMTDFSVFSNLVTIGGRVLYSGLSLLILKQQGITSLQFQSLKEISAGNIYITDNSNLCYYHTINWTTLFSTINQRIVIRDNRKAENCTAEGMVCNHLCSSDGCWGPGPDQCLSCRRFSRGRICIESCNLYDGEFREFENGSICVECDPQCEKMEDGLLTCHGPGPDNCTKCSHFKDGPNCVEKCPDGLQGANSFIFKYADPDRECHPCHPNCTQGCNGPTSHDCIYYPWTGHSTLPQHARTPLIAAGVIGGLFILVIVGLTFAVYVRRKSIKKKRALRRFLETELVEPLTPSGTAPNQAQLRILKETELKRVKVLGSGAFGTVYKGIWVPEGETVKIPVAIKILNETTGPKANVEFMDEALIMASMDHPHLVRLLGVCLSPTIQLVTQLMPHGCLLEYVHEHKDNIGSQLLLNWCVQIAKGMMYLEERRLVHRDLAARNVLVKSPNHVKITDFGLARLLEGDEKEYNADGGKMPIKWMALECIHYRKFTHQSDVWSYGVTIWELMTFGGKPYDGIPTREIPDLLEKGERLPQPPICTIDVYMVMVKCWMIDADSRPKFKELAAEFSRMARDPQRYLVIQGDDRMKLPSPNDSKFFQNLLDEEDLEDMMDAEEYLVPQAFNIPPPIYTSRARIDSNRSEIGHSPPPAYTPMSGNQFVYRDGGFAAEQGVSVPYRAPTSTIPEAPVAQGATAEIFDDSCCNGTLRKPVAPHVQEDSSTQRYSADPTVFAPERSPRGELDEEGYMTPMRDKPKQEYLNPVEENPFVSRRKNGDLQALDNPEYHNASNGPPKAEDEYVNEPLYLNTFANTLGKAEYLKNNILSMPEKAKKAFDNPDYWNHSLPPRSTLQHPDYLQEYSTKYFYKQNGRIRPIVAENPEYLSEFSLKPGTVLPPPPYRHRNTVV
Sequence of CSNK2A1 (human) (P68400 whole entry, looked up): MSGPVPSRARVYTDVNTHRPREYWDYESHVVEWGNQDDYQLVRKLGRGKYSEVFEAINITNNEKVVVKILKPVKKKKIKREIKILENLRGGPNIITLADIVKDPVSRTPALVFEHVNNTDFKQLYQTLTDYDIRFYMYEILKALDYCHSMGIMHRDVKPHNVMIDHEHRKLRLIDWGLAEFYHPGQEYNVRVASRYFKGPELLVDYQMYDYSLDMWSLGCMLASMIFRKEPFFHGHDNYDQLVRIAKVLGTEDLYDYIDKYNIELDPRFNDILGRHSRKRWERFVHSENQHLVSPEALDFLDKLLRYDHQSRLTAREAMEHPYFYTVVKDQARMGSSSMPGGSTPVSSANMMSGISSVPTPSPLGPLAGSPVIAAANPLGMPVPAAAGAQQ
Sequence of DYRK2 (human) (Q92630 whole entry, looked up): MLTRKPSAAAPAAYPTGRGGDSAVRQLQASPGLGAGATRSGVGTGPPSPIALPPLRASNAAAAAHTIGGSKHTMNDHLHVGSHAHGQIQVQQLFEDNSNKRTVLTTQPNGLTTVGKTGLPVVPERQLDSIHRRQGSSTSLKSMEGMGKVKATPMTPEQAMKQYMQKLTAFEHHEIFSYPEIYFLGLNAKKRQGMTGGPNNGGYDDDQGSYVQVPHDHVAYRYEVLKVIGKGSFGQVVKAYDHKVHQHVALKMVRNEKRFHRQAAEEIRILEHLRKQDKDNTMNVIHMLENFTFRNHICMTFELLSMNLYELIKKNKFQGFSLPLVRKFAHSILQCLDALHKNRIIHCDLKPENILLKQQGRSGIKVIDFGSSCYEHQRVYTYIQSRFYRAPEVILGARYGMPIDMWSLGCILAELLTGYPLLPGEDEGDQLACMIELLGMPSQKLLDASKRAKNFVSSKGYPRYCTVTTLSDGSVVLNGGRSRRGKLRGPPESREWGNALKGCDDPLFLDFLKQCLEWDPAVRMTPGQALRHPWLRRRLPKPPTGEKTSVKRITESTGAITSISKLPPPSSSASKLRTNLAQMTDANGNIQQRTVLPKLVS
Sequence of MELK (human) (Q14680 whole entry, looked up): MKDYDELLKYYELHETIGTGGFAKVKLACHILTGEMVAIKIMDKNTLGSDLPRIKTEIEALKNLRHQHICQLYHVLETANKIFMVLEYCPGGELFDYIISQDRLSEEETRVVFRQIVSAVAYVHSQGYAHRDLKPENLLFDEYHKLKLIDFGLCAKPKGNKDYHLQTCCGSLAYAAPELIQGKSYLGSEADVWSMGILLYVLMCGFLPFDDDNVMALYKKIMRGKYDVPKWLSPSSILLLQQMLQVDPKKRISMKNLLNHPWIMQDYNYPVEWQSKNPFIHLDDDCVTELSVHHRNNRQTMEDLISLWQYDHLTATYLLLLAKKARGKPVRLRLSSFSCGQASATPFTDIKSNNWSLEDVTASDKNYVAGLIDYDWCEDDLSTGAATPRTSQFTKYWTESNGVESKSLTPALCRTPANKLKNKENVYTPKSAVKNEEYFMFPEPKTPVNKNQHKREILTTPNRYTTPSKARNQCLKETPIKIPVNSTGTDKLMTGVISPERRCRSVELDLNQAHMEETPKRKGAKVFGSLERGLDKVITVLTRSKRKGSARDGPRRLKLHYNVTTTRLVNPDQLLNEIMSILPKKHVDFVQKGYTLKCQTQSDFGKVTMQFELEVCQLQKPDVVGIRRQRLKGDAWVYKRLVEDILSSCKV
Sequence of FLT1 (human) (P17948 whole entry, looked up): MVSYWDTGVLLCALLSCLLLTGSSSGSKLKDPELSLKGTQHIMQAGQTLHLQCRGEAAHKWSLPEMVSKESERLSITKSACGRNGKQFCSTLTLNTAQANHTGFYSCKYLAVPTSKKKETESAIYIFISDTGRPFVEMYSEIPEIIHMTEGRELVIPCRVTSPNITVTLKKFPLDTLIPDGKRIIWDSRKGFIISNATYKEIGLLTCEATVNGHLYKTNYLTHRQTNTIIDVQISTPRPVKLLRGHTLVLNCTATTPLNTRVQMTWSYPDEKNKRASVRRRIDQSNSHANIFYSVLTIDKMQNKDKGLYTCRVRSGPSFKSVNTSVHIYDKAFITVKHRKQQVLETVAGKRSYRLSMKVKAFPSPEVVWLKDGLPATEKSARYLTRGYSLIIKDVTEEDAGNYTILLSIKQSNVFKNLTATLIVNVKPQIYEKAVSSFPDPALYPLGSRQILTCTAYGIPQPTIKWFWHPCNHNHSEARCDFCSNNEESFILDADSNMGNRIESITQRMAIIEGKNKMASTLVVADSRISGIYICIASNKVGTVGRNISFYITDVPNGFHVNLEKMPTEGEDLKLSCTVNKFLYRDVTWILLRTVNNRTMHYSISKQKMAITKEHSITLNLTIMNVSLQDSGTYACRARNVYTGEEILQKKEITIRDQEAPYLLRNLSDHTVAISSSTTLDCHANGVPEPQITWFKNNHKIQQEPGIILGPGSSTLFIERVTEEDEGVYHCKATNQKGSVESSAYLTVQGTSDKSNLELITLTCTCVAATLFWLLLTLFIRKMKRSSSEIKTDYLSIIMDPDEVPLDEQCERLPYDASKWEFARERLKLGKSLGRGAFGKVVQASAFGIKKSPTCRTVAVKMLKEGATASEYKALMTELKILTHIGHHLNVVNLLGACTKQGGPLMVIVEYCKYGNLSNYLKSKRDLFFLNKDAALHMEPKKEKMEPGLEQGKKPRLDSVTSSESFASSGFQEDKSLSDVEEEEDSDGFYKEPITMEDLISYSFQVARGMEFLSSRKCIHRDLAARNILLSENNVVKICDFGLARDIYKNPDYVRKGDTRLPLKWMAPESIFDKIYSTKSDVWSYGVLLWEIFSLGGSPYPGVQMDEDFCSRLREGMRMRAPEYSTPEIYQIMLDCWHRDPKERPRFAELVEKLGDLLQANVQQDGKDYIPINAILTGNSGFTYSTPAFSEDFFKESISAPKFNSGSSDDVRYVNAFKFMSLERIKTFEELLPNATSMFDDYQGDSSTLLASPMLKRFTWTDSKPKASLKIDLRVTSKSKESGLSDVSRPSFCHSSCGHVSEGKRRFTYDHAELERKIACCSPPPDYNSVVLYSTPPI

residual activity (PRKACA (human); compound 0.01 µM): 98%
residual activity (PRKACA (human); compound 0.1 µM): 99%
residual activity (PRKACA (human); compound 1.0 µM): 88%
residual activity (CSNK2A1 (human); compound 0.01 µM): 99%
residual activity (CSNK2A1 (human); compound 0.1 µM): 127%
residual activity (CSNK2A1 (human); compound 1.0 µM): 102%
residual activity (CHEK1 (human); compound 0.01 µM): 103%
residual activity (CHEK1 (human); compound 0.1 µM): 99%
residual activity (CHEK1 (human); compound 1.0 µM): 104%
residual activity (AURKA (human); compound 0.01 µM): 108%
residual activity (AURKA (human); compound 0.1 µM): 128%
residual activity (AURKA (human); compound 1.0 µM): 96%
residual activity (PHKG1 (human); compound 0.01 µM): 104%
residual activity (PHKG1 (human); compound 0.1 µM): 115%
residual activity (PHKG1 (human); compound 1.0 µM): 92%
residual activity ([1]; compound 0.01 µM): 110%
residual activity ([1]; compound 0.1 µM): 126%
residual activity ([1]; compound 1.0 µM): 104%
residual activity (INSRR (human); compound 0.01 µM): 91%
residual activity (INSRR (human); compound 0.1 µM): 104%
residual activity (INSRR (human); compound 1.0 µM): 94%
residual activity (DYRK2 (human); compound 0.01 µM): 104%
residual activity (DYRK2 (human); compound 0.1 µM): 92%
residual activity (DYRK2 (human); compound 1.0 µM): 90%
residual activity (FLT1 (human); compound 0.01 µM): 109%
residual activity (FLT1 (human); compound 0.1 µM): 88%
residual activity (FLT1 (human); compound 1.0 µM): 108%
residual activity (MAPKAPK5 (human); compound 0.01 µM): 97%
residual activity (MAPKAPK5 (human); compound 0.1 µM): 112%
residual activity (MAPKAPK5 (human); compound 1.0 µM): 98%
residual activity (MAP2K2 (human); compound 0.01 µM): 90%
residual activity (MAP2K2 (human); compound 0.1 µM): 90%
residual activity (MAP2K2 (human); compound 1.0 µM): 69%
residual activity (CDK2 CCNA2 (human); compound 0.01 µM): 95%
residual activity (CDK2 CCNA2 (human); compound 0.1 µM): 98%
residual activity (CDK2 CCNA2 (human); compound 1.0 µM): 85%
residual activity (MAPKAPK3 (human); compound 0.01 µM): 97%
residual activity (MAPKAPK3 (human); compound 0.1 µM): 114%
residual activity (MAPKAPK3 (human); compound 1.0 µM): 97%
residual activity (TAOK1 (human); compound 0.01 µM): 91%
residual activity (TAOK1 (human); compound 0.1 µM): 101%
residual activity (TAOK1 (human); compound 1.0 µM): 105%
residual activity (ERBB4 (human); compound 0.01 µM): 106%
residual activity (ERBB4 (human); compound 0.1 µM): 88%
residual activity (ERBB4 (human); compound 1.0 µM): 88%
residual activity (MINK1 (human); compound 0.01 µM): 125%
residual activity (MINK1 (human); compound 0.1 µM): 113%
residual activity (MINK1 (human); compound 1.0 µM): 120%
residual activity (FGFR1 (human); compound 0.01 µM): 111%
residual activity (FGFR1 (human); compound 0.1 µM): 105%
residual activity (FGFR1 (human); compound 1.0 µM): 101%
residual activity (PRKCA (human); compound 0.01 µM): 87%
residual activity (PRKCA (human); compound 0.1 µM): 89%
residual activity (PRKCA (human); compound 1.0 µM): 94%
residual activity (GCK (human); compound 0.01 µM): 112%
residual activity (GCK (human); compound 0.1 µM): 103%
residual activity (GCK (human); compound 1.0 µM): 108%
residual activity (MAPK12 (human); compound 0.01 µM): 71%
residual activity (MAPK12 (human); compound 0.1 µM): 102%
residual activity (MAPK12 (human); compound 1.0 µM): 80%
residual activity (MAPK10 (human); compound 0.01 µM): 85%
residual activity (MAPK10 (human); compound 0.1 µM): 88%
residual activity (MAPK10 (human); compound 1.0 µM): 79%
residual activity (BRSK1 (human); compound 0.01 µM): 102%
residual activity (BRSK1 (human); compound 0.1 µM): 90%
residual activity (BRSK1 (human); compound 1.0 µM): 95%
residual activity (EEF2K (human); compound 0.01 µM): 99%
residual activity (EEF2K (human); compound 0.1 µM): 118%
residual activity (EEF2K (human); compound 1.0 µM): 84%
residual activity (RPS6KA3 KD1 KD2 (human); compound 0.01 µM): 112%
residual activity (RPS6KA3 KD1 KD2 (human); compound 0.1 µM): 106%
residual activity (RPS6KA3 KD1 KD2 (human); compound 1.0 µM): 89%
residual activity ([2]; compound 0.01 µM): 103%
residual activity ([2]; compound 1.0 µM): 100%
residual activity (AURKB (human); compound 0.01 µM): 93%
residual activity (AURKB (human); compound 0.1 µM): 103%
residual activity (AURKB (human); compound 1.0 µM): 89%
residual activity (MELK (human); compound 0.01 µM): 97%
residual activity (MELK (human); compound 0.1 µM): 107%
residual activity (MELK (human); compound 1.0 µM): 92%
residual activity (PIM2 (human); compound 0.01 µM): 106%
residual activity (PIM2 (human); compound 0.1 µM): 109%
residual activity (PIM2 (human); compound 1.0 µM): 108%
residual activity (SRPK1 (human); compound 0.01 µM): 100%
residual activity (SRPK1 (human); compound 0.1 µM): 90%
residual activity (SRPK1 (human); compound 1.0 µM): 102%
residual activity (MST4 (human); compound 0.01 µM): 106%
residual activity (MST4 (human); compound 0.1 µM): 99%
residual activity (MST4 (human); compound 1.0 µM): 106%
residual activity (RIPK2 (human); compound 0.01 µM): 89%
residual activity (RIPK2 (human); compound 0.1 µM): 87%
residual activity (RIPK2 (human); compound 1.0 µM): 89%
residual activity (EPHA2 (human); compound 0.01 µM): 95%
residual activity (EPHA2 (human); compound 0.1 µM): 93%
residual activity (EPHA2 (human); compound 1.0 µM): 100%
residual activity (BTK (human); compound 0.01 µM): 108%
residual activity (BTK (human); compound 0.1 µM): 103%
residual activity (BTK (human); compound 1.0 µM): 101%
residual activity (MAP2K6 (human); compound 0.01 µM): 100%
residual activity (MAP2K6 (human); compound 0.1 µM): 110%
residual activity (MAP2K6 (human); compound 1.0 µM): 85%
residual activity (PIM3 (human); compound 0.01 µM): 104%
residual activity (PIM3 (human); compound 0.1 µM): 101%
residual activity (PIM3 (human); compound 1.0 µM): 95%
Structure (SMILES): O=C(Nc1nc2cc(C(F)(F)F)cc(NC3CC3)n2n1)c1cccnc1
residual activity (MAPK15 (human); compound 0.01 µM): 102%
residual activity (MAPK15 (human); compound 0.1 µM): 110%
residual activity (MAPK15 (human); compound 1.0 µM): 102%
